In data set [1] the test system is T-tropic HIV. Conditions: cited from earlier work.
Data set [2] concerns HIV-1 R5 strain (BaL). Briefly: microbe, parasite or virus in culture. The data set is classed as cell-based. The conditions noted are these: TZM-bl; for IC50: Human immunodeficiency virus 1, BAL, R5 strain, MOI 0.3. The procedure:
(§1) We next tested the antiviral activity of the NDI–tetraazacycloalkane conjugates in TZM-bl cells. Cells were infected with HIV-1 NL4–3 or BaL, two strains with different cell tropism due to the different coreceptors that are bound by the virus to get access into the cell: HIV-1 NL4–3 exploits the CXCR4 coreceptor (X4 strain), while HIV-1 BaL exploits the CCR5 coreceptor (R5 strain). Compounds were administered at the time of infection or 2 h post infection, and the antiviral activity was evaluated 24 and 48 h post infection. Cytotoxicity was tested in parallel on uninfected cells to assess compound cytotoxicity.
(§2) Cytotoxicity of tested compounds was performed in parallel to antiviral and reporter assays by MTT. […] The selectivity index (SI) is the relative effectiveness of the tested compound in inhibiting viral replication compared to inducing cell death (CC50 value/IC50 value). […] IC50 and CC50 values were calculated by using a nonlinear regression model.
(§3) HIV-1 infectivity was measured using the TZM-bl reporter cell line (obtained through the NIH AIDS Reagent Program, Division of AIDS, NIAID, NIH: TZM-bl cells (catalog no. 8129) from Dr. John C. Kappes, and Dr. Xiaoyun Wu). TZM-bl is a HeLa cell line stably expressing large amounts of CD4 and CCR5, constitutively expressing CXCR4 and containing integrated copies of the luciferase and β-galactosidase genes under the control of the HIV-1 promoter. TZM-bl were grown in DMEM supplemented with 10% FBS. Cells (1 × 10^4 cells/well) were seeded in 96-well plates and grown overnight to permit adherence prior to treatment and viral infection. Cells were next infected with HIV-1 NL4–3 strain or BaL strain at a MOI of respectively 0.5 and 0.3 for 1 h at 37 °C, treated with serial dilutions of tested compounds, and incubated at 37 °C. MOI values had been optimized in previous in-house experiments in order to obtain a well detectable virus release but avoid a virus-induced cytopathic effect. Compounds were reconstituted in DMSO, and dilutions were made in cell medium to maintain the same percentage of DMSO in all dilutions. Untreated cells were treated with the same solvent. After 24 or 48 h, cells were washed with PBS 1× and HIV-1 production was assessed following the LTR-luciferase signal using the britelite plus Reporter Gene Assay System (PerkinElmer, Waltman, MA, USA) according to the manufacturer’s protocol.

Data set [3] relates to HIV-1 X4 strain (NL4-3). The data set can be described thus: microbe, parasite or virus in culture. The data set is classed as cell-based. The conditions noted are these: for IC50: Human immunodeficiency virus 1, NL43, TZM-bl, X4 strain, MOI 0.5. As to the method:
as §1, §2, §3

For data set [4] the following is noted: stability constant; cited from earlier work.
Data set [5] deals with LTR-III. The data set can be described thus: CD melting, LTR-III G4. Conditions: LTR-III 4 μM, compound 8 μM, 100 mM KCl. The data set is classed as binding, HIV-1. As to the method:
(§4) All oligonucleotides used in this study were from Sigma-Aldrich (Milan, Italy) (Table S2). For CD analysis, oligonucleotides were diluted to a final concentration of 4 μM in lithium cacodylate buffer (10 mM, pH 7.4) and KCl 100 mM. After the annealing step (95 °C for 5 min), DNA samples were gradually cooled to room temperature and compounds added from stock at final concentration of 8 μM. […] The reported spectrum of each sample represents the average of 2 scans and is baseline-corrected for signal contributions due to the buffer. Observed ellipticities were converted to mean residue ellipticity (θ) = deg × cm^2 × dmol^–1 (mol ellip). For the determination of Tm, spectra were recorded over a temperature range of 20–90 °C, with a temperature increase of 5 °C/min. Tm values were calculated according to the van’t Hoff equation, applied for a two-state transition from a folded to unfolded state, assuming that the heat capacity of the folded and unfolded states are equal.

Data set [6] deals with LTR-IV. Briefly: CD melting, LTR-IV G4. Format: binding, HIV-1. Conditions: LTR-IV 4 μM, compound 8 μM, 100 mM KCl. The procedure:
as §4

Data set [7] deals with LTR-IV. The data set can be described thus: FRET melting assay, LTR-IV G4. The conditions noted are these: LTR-IV 0.25 μM, compound 0.5 μM, 100 mM KCl. The data set is classed as binding, HIV-1. The procedure:
(§5) FRET assay was performed with FAM (6-carboxyfluorescein) 5′-end- and Tamra (6-carboxytetramethylrhodamine) 3′-end-labeled oligonucleotides (Table S1). Fluorescence melting curves were determined with a LightCycler II (Roche) real-time PCR machine, using a total reaction volume of 20 μL, with 0.25 μM tagged oligonucleotide in a buffer containing 10 mM lithium cacodylate pH 7.4 with 100 mM KCl, in the presence or absence of 0.5 μM NDI–tetraazacycloalkane conjugate. After a first equilibration step at 30 °C during 2 min, a stepwise increase of 1 °C every minute for 65 cycles to reach 95 °C was performed and measurements were made after each cycle with excitation at 470 nm and detection at 530 nm. Final analysis of the data was carried out using Excel and Sigma Plot software. Oligonucleotides melting was monitored by observing emission of FAM, which was normalized between 0 and 1: Tm was defined as the temperature at which the normalized emission is 0.5. Tm values were mean of 2–3 experiments and ΔTm was calculated as the difference Tm in the presence and absence of the compound.

The test system of data set [8] is dsDNA. Briefly: FRET melting assay, dsDNA control. Format: binding. Conditions: dsDNA 0.25 μM, compound 0.5 μM, 100 mM KCl. The procedure: as §5
In data set [9] the test system is F21T. Format: binding. Conditions: F21T 0.25 μM, compound 0.5 μM, 100 mM KCl. The procedure: as §5
The test system of data set [10] is TZM-bl cells. The data set can be described thus: MTT cytotoxicity assay on uninfected cells. Format: cell-based. The conditions noted are these: for CC50: uninfected TZM-bl. The procedure: (§6) We used TZM-bl cells that are HeLa cells stably expressing large amounts of CD4, CXCR4, and CCR5, thus being highly susceptible to HIV-infection, with integrated luciferase and beta-galactosidase genes under the control of the HIV-1 promoter. We first tested NDI–tetraazacycloalkane conjugates’ cytotoxicity on TZM-bl cells by treating them with increasing amounts of compounds (0.097–25 μM) for 24 and 48 h.
(§7) Cytotoxicity of tested compounds was performed in parallel to antiviral and reporter assays by MTT. […] The selectivity index (SI) is the relative effectiveness of the tested compound in inhibiting viral replication compared to inducing cell death (CC50 value/IC50 value). […]. IC50 and CC50 values were calculated by using a nonlinear regression model.
In general terms: Tetrazolium dyes change colour on reduction, which living cells bring about.

The nature of data set [11]: MTT cytotoxicity assay on uninfected cells. The data set is classed as cell-based. The conditions noted are these: human, uninfected TZM-bl. As to the method: as §6, §7
Data set [12] deals with LTR-III. The data set can be described thus: FRET melting assay, LTR-III G4. Format: binding, HIV-1. The conditions noted are these: LTR-III 0.25 μM, compound 0.5 μM, 100 mM KCl. The procedure:
as §5

Data set [13] has as its system Tel22. The data set can be described thus: CD melting, telomeric G4 control. The data set is classed as binding. Conditions: Tel22 4 μM, compound 8 μM, 100 mM KCl. As to the method: as §4
Data set [14] concerns HIV-1 X4 strain (NL4–3). The data set can be described thus: Time of addition (TOA) assay, X4 strain. The data set is classed as cell-based.
Method: This assay indicates how long the addition of a compound can be postponed before it loses its antiviral activity: comparing the test compounds with reference drugs, whose mechanism is well characterized in the time frame of virus replication, it is possible to determine which viral steps are affected by the test compounds.[56]
Virus production was monitored at 25 h post infection, i.e., at the end of a single round of HIV-1 replication, by exploiting the LTR-driven luciferase reporter system.
25 h post infection HIV-1 production was assessed following the LTR-luciferase signal using the britelite plus Reporter Gene Assay System. The activity of the test compounds was compared with that of untreated infected cells and reference drugs (DS stands for dextran sulfate and NEV stands for nevirapine).
TZM-bl cells (1 × 10^4 cells/well) were seeded in 96-well plates and grown overnight to permit adherence prior to treatment and viral infection. Cells were next infected with HIV-1 NL4–3 or BaL strains (MOI 0.5 and 0.3, respectively) and incubated at 37 °C. […] Following these criteria, we used the highest possible concentrations with the lowest cytotoxicity. After 25 h, cells were washed with PBS 1× and HIV-1 production was assessed following the LTR-luciferase signal using the britelite plus Reporter Gene Assay System (PerkinElmer, Waltman, MA, USA) according to the manufacturer’s protocol.
[15] abbreviates: administration 0 hpi, evaluation 24 hpi.
Setting [16] is: administration 2 hpi, evaluation 24 hpi.
[17] abbreviates: administration 2 hpi, evaluation 48 hpi.

Where a name gives a salt, the structure may show the parent alone.

In the case of `c1cc(CN2CCCNCCNCCCNCC2)ccc1CN1CCCNCCNCCCNCC1` [AMD3100, 1,1′-[1,4-phenylenebis(methylene)]-bis-1,4,8,11-tetraazacyclotetradecane octahydrochloride dehydrate, reference compound], the “concentration preventing replication of T-tropic HIV (in words)” value in data set [1] was “low nanomolar concentrations”. The “antiviral activity (in words)” value in data set [2] (BaL strain, Figure S10) is “inactive”; in [3] (pNL4.3 strain, TZM-bl, Figure S10) it was “excellent activity”.
As to `C1CNCCNCCNCCN1` [Cyclen], the “log Ka toward Cu^2+” value in [4] is 23.29.
Regarding `C1CNCCNCCNCCNC1` [[13]aneN4], the “log Ka for Cu^2+” value in [4] is listed as 24.41.
What is called IC50 is the concentration at which inhibition is half-maximal. Low values mean inhibition by little substance, high ones a need for much substance. A word on the CC50: it is the concentration that lowers cell viability or growth by half. The low end stands for greater toxicity to the cells, the high end for lower toxicity to the cells. `CN(C)CCCNc1cc2c3c(c(NCCCCCC(=O)OCC4CNCCCNCCNCCN4)cc4c3c1C(=O)N(CCCN(C)C)C4=O)C(=O)N(CCCN(C)C)C2=O` (stereo not shown) [compound 5]: the entries for the “Tm K^+ 100 mM + compound (CD)” value in data set [5], in data set [6] and in [13] were 78.6 ± 0.5 °C, 71.6 ± 0.4 °C and 60.9 ± 0.3 °C, respectively. Also, the figures for the “ΔTm (CD)” value in data set [5], in data set [6] and in data set [13] were 10.4 °C, 21.2 °C and “–5.9 °C”, respectively. For the same compound, the “Tm K^+ 100 mM + compound (FRET)” value in [7] was found to be 73.9 ± 0.6 °C; in data set [8] it was 65.0 ± 0.2 °C; in data set [9], 66.6 ± 0.1 °C; in data set [12] it was 77.7 ± 0.1 °C. For the same compound, the “ΔTm (FRET)” value in [7] was found to be 15.2 °C; in data set [8], 0.8 °C; in [9] it was 2.2 °C; in [12] it was 12.5 °C. Besides, the IC50 in [2] (setting [15]) was over 25 µM; in data set [2] (setting [16]), over 25 µM; in data set [2] (setting [17]), 16.6 ± 1.33 µM; in [3] (setting [15]) it was 17.8 ± 0.94 µM; in data set [3] (administration 0 hpi, evaluation 48 hpi), 1.86 ± 0.49 µM; in data set [3] (setting [16]), 12.1 ± 1.02 µM. In data set [3] (setting [17]), this compound gave an IC50 of 1.82 ± 0.65 µM. Moreover, the half-maximal cytotoxic concentration (CC50) in [10] (parallel to R5, administration 0 hpi, evaluation 24 hpi) is over 25 µM; in [10] (parallel to R5, administration 0 hpi, evaluation 48 hpi) it was over 25 µM; in data set [10] (parallel to R5, administration 2 hpi, evaluation 48 hpi), over 25 µM; in data set [10] (parallel to X4, administration 0 hpi, evaluation 24 hpi) it was over 25 µM; in data set [10] (parallel to X4, administration 2 hpi, evaluation 24 hpi) it was over 25 µM; in data set [10] (parallel to X4, administration 2 hpi, evaluation 48 hpi), over 25 µM. For the same compound, the cytotoxic concentration (CC50) at 24 h in data set [11] (parallel to R5, administration 2 hpi, evaluation 24 hpi) was over 25 µM. In addition, in data set [11] (parallel to X4, administration 0 hpi, evaluation 48 hpi), the CC50 at 48 h is over 25 µM.
`Cc1ccnc2c1NC(=O)c1cccnc1N2C1CC1` [nevirapine]: in data set [14], the “time post infection up to which the control drug is active” value was 3 to 4 h.
Consider `CN(C)CCCNc1cc2c3c(c(NCCCCCC(=O)O)cc4c3c1C(=O)N(CCCN(C)C)C4=O)C(=O)N(CCCN(C)C)C2=O` [parental NDI], for which, in data set [10] (TZM-bl, 24 h, Figure S11), the “cytotoxicity (in words)” value was “highly cytotoxic”.
dextran sulfate: the “time post infection up to which the control drug is active” value in data set [14] is reported as “active at the time of infection only”.

The values are drawn from PMC10862543, “Naphthalene Diimide–Tetraazacycloalkane Conjugates Are G-Quadruplex-Based HIV-1 Inhibitors with a Dual Mode of Action” (ACS Infectious Diseases, 2024).
